How the values were obtained:
HIV-1 = conditions: Wild et al. 1994; cited from earlier work
PI2F + PI2HN = biological target: T1, PI2F + PI2HN (Human parainfluenza 2 virus, UniProt P25467); assay type: cell-based, parainfluenza virus type 2; conditions: 18 hr
T1 construct: expressed in transfected cells; host or cells: HeLa-T4 cells infected with vTF7.3
T1 sequence (P25467 107-551 limits assumed): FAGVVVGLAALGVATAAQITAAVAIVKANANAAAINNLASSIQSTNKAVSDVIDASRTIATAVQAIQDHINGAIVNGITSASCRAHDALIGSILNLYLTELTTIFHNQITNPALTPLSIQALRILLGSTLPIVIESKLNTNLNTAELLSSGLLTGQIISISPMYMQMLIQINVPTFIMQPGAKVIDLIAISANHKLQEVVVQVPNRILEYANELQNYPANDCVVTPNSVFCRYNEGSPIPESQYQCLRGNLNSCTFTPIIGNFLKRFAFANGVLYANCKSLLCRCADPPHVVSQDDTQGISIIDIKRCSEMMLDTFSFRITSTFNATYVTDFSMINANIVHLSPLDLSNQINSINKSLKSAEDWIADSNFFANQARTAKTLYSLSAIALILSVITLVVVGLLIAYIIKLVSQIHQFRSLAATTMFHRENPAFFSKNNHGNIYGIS
T1 sequence (P25467 24-106 partner limits assumed): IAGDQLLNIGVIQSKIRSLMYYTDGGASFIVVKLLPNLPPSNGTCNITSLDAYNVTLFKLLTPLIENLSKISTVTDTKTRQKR

PI2 virus [1] = experiment: Inhibition of plaque formation on Vero cells (viral entry), PI2; assay type: cell-based, parainfluenza virus type 2
Description: Inhibition of plaque formation. A series of 2-fold dilutions of F peptides together with appropriately diluted PI2 or PI3 virus were added to monolayers of Vero cells. After 1 h incubation at 37° C., the inoculum was removed and overlaid with 2% white agar mixed at 1:1 ratio with 2XDMEM containing 2% FBS. Three days after overlying, red agar mixed at a 1:1 ratio with 2XDMEM containing 2% FBS was overlaid to stain the cells. Plaque numbers were counted one day after neutral red staining and recorded. The Reed-Muench method of estimating 50% endpoint [Welkos, S. et al., (1994) Methods in Enzymology. 235:29-39] was used to calculate the F peptide 50% effective concentration (EC50) value.
F peptides inhibit viral spread. To determine whether the F peptide interferes with the viral entry process, a plaque assay was performed by inoculating cells with virus and peptide together at 37° C. for 1 h, and then overlaying with agar without the addition of peptide. At 10^4 dilution of the PI2 virus stock, 80 μM of the 2F1B34 peptide (SEQ ID NO:21) caused an 80% reduction in number of plaques. Similarly, at 10^5 dilution of the PI3 virus stock, 100 μM of the 3F1B35 peptide (SEQ ID NO:23) caused a 70% reduction in number of plaques. Furthermore, the reduction in the number of viral plaques was correlated with increasing concentration of peptide incubated with the virus. […]

PI2 virus [2] = experiment: Surface immunofluorescence of PI2 antigen on infected HeLa-T4 cells (viral spread); assay type: cell-based, parainfluenza virus type 2; conditions: low m.o.i. infection, incubated with peptide
Description: Surface immunofluorescence. Indirect immunofluorescence was performed as described by Paterson et al. 1989. In general, HeLa-T4 cells were grown on glass coverslips in 24-well plates and infected with wild-type PI2 virus as described above. At indicated times post infection, cells were washed with ice-cold PBS three times before being fixed with 1% paraformaldehyde in PBS. Rabbit anti-PI2 antibody was added onto cell monolayers, and cells were then incubated at 4° C. for 30 min. Cells were washed with ice-cold PBS three times, and then goat anti-rabbit immunoglobulin G fluorescein-conjugated antibody (Southern Biotechnology Associates, Inc., Birmingham, Ala.) was added and was then incubated at 4° C. for 30 min. Cell surface fluorescence was examined by fluorescence microscopy with a Nikon Optiphot microscope.
To further confirm that the F peptides inhibit viral spread, we examined the distribution of infected cells by surface immunofluorescence at intervals post low m.o.i. infection in the presence or absence of F peptides.

PI2 virus [3] = experiment: Plaque size reduction on Vero cells, peptide in agar overlay; assay type: cell-based, parainfluenza virus type 2; conditions: 80 μM peptide in agar overlay after 1 h absorption; control cells 3 mm; three days
Description: FIGS. 11A and 11B Plaque size reduction by F peptides. Plaque assay was performed on the Vero cells using PI2 virus. After 1 h absorption at 37° C., inoculum was removed and cells overlaid with a 1:1 mixture of 2% white agar with 2XDMEM containing 2% FBS (A) without addition of F peptide, or (B) with addition of 80 μM of 2F1B34 in the overlay agar. Three days after overlaying, the agar was removed and the monolayer of cells was stained with crystal violet.
As another indication of a reduction in spread of virus under condition of multiple cycle replication, the effect of the peptides on plaque size was determined.

PI2 virus [4] = assay type: cell-based, parainfluenza virus type 2
PI2 virus [5] = experiment: Inhibition of virus production (released virus titer) in HeLa-T4 cells, PI2; assay type: cell-based, parainfluenza virus type 2; conditions: 48 h post infection; m.o.i. 0.1; 80 μM peptide (FIG. 10); culture supernatant

Substance | potency against cell-cell fusion versus infection by cell-free virus (HIV-1) | inhibition of cell fusion induced by coexpression of PI2 F plus PI2 HN (PI2F + PI2HN) | reduction in number of plaques, PI2 (PI2 virus [1]; 80 μM peptide with virus 1 h at 37° C., 10^4 dilution of the PI2 virus stock, overlay without peptide) [%] | EC50 (PI2 virus [1]; Vero cells, Reed-Muench method, read-out: 50% effective concentration (EC50), plaque number, PI2) [µM] | cells expressing PI2 antigen on the surface at 18 h (PI2 virus [2]) | numbers of cells showing PI2 antigen expression on the surface at 24 h and 48 hpi (PI2 virus [2]) | plaque size (diameter) (PI2 virus [3]) [mm] | syncytium formation / inhibition of cell fusion in PI2 infected HeLa-T4 cells (in words) (PI2 virus [4]; incubated with peptide, concentration not given) | inhibition of PI2 virus-induced cell fusion (PI2 virus [4]; peptide concentration as low as 80 μM, 24 h post infection, m.o.i. 0.1) | decrease in the viral titer, PI2 (PI2 virus [5]) [fold]
enfuvirtide | more potent inhibitor of cell-cell fusion than of infection by cell-free virus | – | – | – | – | – | – | – | – | –
2F1B34: PI2F peptide from the beginning of the transmembrane domain to include the entire heptad repeat B region (DLSNQINSINKSLKSAEDWIADSNFFANQARTAK) | – | completely inhibit | 80 | 53.8 | only few cells were expressing PI2 antigen | no increase in numbers of cells showing antigen expression | 1.5 | no syncytia were seen | completely inhibited | 15
